The values that follow come from article PMC7355546, “Lignans, Amides, and Saponins from Haplophyllum tuberculatum and Their Antiprotozoal Activity” (Molecules, 2020).

Where “and” joins values, the source holds several entries; their conditions need not be identical. Equal values may be shown once. Read-outs that look alike come from different tables or passages of the source. Where only a bound is given, the exact number is not on record here.

The test system of data set [1] is P. falciparum (NF54). In words: Activity against Plasmodium falciparum erythrocytic stages (3H-hypoxanthine incorporation). It counts as cell-based. As to conditions: for P. falciparum SI (selectivity index): IC50 in L6 cells divided by IC50 in P. falciparum.
The test system of data set [2] is T. b. rhodesiense (STIB 900) bloodstream forms. In words: Activity against Trypanosoma brucei rhodesiense bloodstream forms (resazurin). It counts as cell-based. To be noted: for T. b. rhodesiense SI (selectivity index): IC50 in L6 cells divided by IC50 in T. b. rhodesiense; for IC50: read-out: T. b. rhodesiense IC50; for activity against T. b. rhodesiense (in words): STIB 900. The method, then: The stock was originally isolated from a patient and adapted to axenic culture conditions after several mouse passages and cloned. Minimum Essential Medium (50 µL) supplemented with 25 mM HEPES, 1 g/L additional glucose, 1% MEM non-essential amino acids (100×), 0.2 mM 2-mercaptoethanol, 1mM Na-pyruvate and 15% heat inactivated horse serum was added to each well of a 96-well microtiter plate. […] Then 4 × 10^3 bloodstream forms of T. b. rhodesiense STIB 900 in 50 µL were added to each well and the plate incubated at 37 °C under a 5% CO2 atmosphere for 70 h. […] Melarsoprol (Arsobal Sanofi-Aventis, received from WHO) was used as control.
Background: Alamar Blue is a resazurin reagent that responds to reducing activity.

The nature of data set [3]: In vitro cytotoxicity with L-6 cells (resazurin). It counts as cell-based. As to conditions: unit inferred, the other IC50 columns are µM, read-out: L6 Cells (cytotoxicity IC50). As to the method: Assays were performed in 96-well microtiter plates, each well containing 100 μL of RPMI 1640 medium supplemented with 1% L-glutamine (200 mM) and 10% fetal bovine serum, and 4000 L-6 cells (a primary cell line derived from rat skeletal myoblasts). […] 10 μL of resazurin was then added to each well and the plates incubated for another 2 h. […] Podophyllotoxin (Sigma P4405) was used as control.

The subject of data set [4] is L. donovani intracellular amastigotes in mouse peritoneal macrophages. In words: Activity against Leishmania donovani intramacrophage amastigotes. As to conditions: tested up to 30 μM. It counts as cell-based. As to the method: Mouse peritoneal macrophages (4 × 10^4 in 100 µL RPMI 1640 medium with 10% heat-inactivated FBS) were seeded into wells of a 96-well plate. After 24 h, 100 µL of 2 × 10^5 amastigote Leishmania donovani were added. The amastigotes were taken from an axenic amastigote culture grown at pH 5.4. The medium containing free amastigote forms was removed after 24 h and replaced with fresh medium. The washing step was repeated and afterwards the serial drug dilution was prepared with at least 6 dilution steps. Compound was dissolved in DMSO at 10 mg/mL and further diluted in medium. After incubation for 96 h at 37 °C under a 5% CO2 atmosphere, the medium was removed and cells were fixed by adding 50 µL 4% formaldehyde solution followed by a staining with a 5 µM DRAQ5 solution. Plates were imaged in ImageXpress XLS (MD) microscope using a 20× air objective (635 nm excitation: 690/50 emission). Nine images were collected per well. Automated image analysis was performed with a script developed on Meta Xpress Software (MD). Three outputs were provided for each well: (i) number of host cell nuclei; (ii) numbers of infected and non-infected host cells; (iii) number of parasite nuclei per infected host cell. The IC50 values were calculated based on the infection rate and the numbers of intracellular amastigotes. Miltefosine was used as control.

In data set [5] the test system is L. donovani promastigote form. Set-up: method as in PMID 18688887. As to conditions: cited from earlier work.
Data set [6] has as its system P. falciparum. To be noted: cited from earlier work.
Data set [7] concerns trypanosomes. As to conditions: cited from earlier work.
Where [8] appears, read: Plasmodium falciparum, NF54, NF54, mean of at least two independent replicates ± absolute deviation, read-out: P. falciparum IC50.
Setting [9] is: Trypanosoma brucei, STIB 900 bloodstream forms, mean of at least two independent replicates ± absolute deviation.
[10] abbreviates: NF54, mean of at least two independent replicates ± absolute deviation, read-out: P. falciparum IC50.
The mark [11] stands for this setting: L-6 cells (rat skeletal myoblasts).
Setting [12] is: STIB 900 bloodstream forms, mean of at least two independent replicates ± absolute deviation.

Regarding `COc1cc([C@H]2O[C@@H](c3ccc(O)c(OC)c3)[C@@H](C)[C@H]2C)ccc1O` [Compound 1, tetrahydrofuroguaiacin B], the “P. falciparum SI (selectivity index)” value in data set [1] is on record as 1.8. The results for the IC50 in data set [1] (setting [8]) and in data set [2] (setting [9]) were 53.1 ± 2 µM and 59.4 ± 2.5 µM, respectively. In addition, the “T. b. rhodesiense SI (selectivity index)” value in data set [2] worked out at 1.6. Also, the IC50 at 72 h in data set [3] (rat skeletal myoblasts) was 95.2 ± 9.3 µM.

Take `COc1cc([C@H]2O[C@@H](c3ccc(O)c(OC)c3)[C@H](C)[C@@H]2C)ccc1O` [Compound 2, nectandrin B]: in data set [1], the “P. falciparum SI (selectivity index)” value turned out to be 12.1. For the same compound, the IC50 is 9.5 ± 0.1 µM in data set [1] (setting [10]); 9 to 9.5 µM in data set [1] (setting [8]); 48.3 ± 1.3 µM in data set [2] (setting [9]); above 30 µM in data set [4] (Leishmania donovani, Peritoneal macrophage, read-out: activity against L. donovani in the intracellular amastigote assay). For the same compound, the “T. b. rhodesiense SI (selectivity index)” value in data set [2] turned out to be 2.4. Besides, in data set [3] (rat skeletal myoblasts), the IC50 at 72 h came out at 115 ± 2.6 µM. The “activity against L. donovani in the intracellular amastigote assay” value in data set [4] is on record as “not reproduced”. The “activity against L. donovani promastigotes (in words)” value in data set [5] was “inactive”.

Take `COc1cc([C@H]2O[C@H](c3cc(OC)c(O)c(OC)c3)[C@@H](C)[C@@H]2C)cc(OC)c1O` [Compound 3, fragransin B2]: in data set [1], the “P. falciparum SI (selectivity index)” value is reported as 4.7. Further, the IC50 was 36.1 ± 1 µM in data set [1] (setting [8]) and 47.5 ± 4.5 µM in data set [2] (setting [9]). In addition, the “T. b. rhodesiense SI (selectivity index)” value in data set [2] is reported as 3.6.

`COc1cc([C@H]2O[C@@H](c3cc(OC)c(O)c(OC)c3)[C@@H](C)[C@@H]2C)cc(OC)c1O` [Compound 4, fragransin B1]: the “P. falciparum SI (selectivity index)” value in data set [1] is listed as 8.0. Further, the IC50 is 17.4 ± 2.1 µM in data set [1] (setting [10]), 17 µM in data set [1] (setting [8]) and 40.7 ± 0.4 µM in data set [2] (setting [9]). In data set [2], the “T. b. rhodesiense SI (selectivity index)” value is 3.4. In addition, the IC50 at 72 h in data set [3] (setting [11]) is 163 ± 4.5 µM.

For the compound `COc1cc(CCC(=O)NCCc2ccc(O)cc2)ccc1O` [Compound 5, dihydro-feruloyltyramine], the “activity against P. falciparum (in words)” value in data set [1] (NF54) is on record as “least active”. In addition, the results for the IC50 in data set [1] (setting [8]) and in data set [2] (setting [9]) were 159 µM and 206 ± 66.7 µM, respectively. Also, the “activity against T. b. rhodesiense (in words)” value in data set [2] was “least active”. For the same compound, the IC50 at 72 h in data set [3] (setting [11]) is above 318 µM.

For `COc1cc(/C=C/C(=O)NCCc2ccc(O)cc2)ccc1O` [Compound 6, (E)-N-feruloyltyramine], the “P. falciparum SI (selectivity index)” value in data set [1] came to 3.6. In addition, the IC50 came to 68.4 ± 3.8 µM in data set [1] (setting [8]) and 121 ± 36.9 µM in data set [2] (setting [9]). In addition, the “T. b. rhodesiense SI (selectivity index)” value in data set [2] came out at 2.0. In addition, the “activity against T. b. rhodesiense (in words)” value in data set [2] is reported as “least active”. For the same compound, the IC50 at 72 h in data set [3] (rat skeletal myoblasts) was 247 ± 3.7 µM.

With `COc1cc(C(=O)/C(C)=C(/C)C(=O)c2ccc(O)c(OC)c2)ccc1O` [Compound 7, furoguaiaoxidin], the values for the IC50 in data set [1] (setting [8]) and in data set [2] (setting [9]) were 48.1 ± 10.9 µM and 114 µM, respectively. The IC50 at 72 h in data set [3] (setting [11]) was above 281 µM.

As to `COc1cc(/C=C/C(=O)NCCCCNC(=O)/C=C/c2ccc(O)c(OC)c2)ccc1O` [Compound 8, N,N′-diferuloylputrescine], the “P. falciparum SI (selectivity index)” value in data set [1] was 4.8. The IC50 in data set [1] (setting [8]) is 30.6 ± 8.3 µM; in data set [2] (setting [12]), 18.9 ± 8.4 µM; in data set [2] (setting [9]) it was 19 µM. For the same compound, the “T. b. rhodesiense SI (selectivity index)” value in data set [2] is 8 and 7.8. Besides, the IC50 at 72 h in data set [3] (setting [11]) came out at 146 ± 18.8 µM.

In the case of `CCOC(CNC(=O)/C=C/c1ccc(O)c(OC)c1)c1ccc(O)cc1` (centres unmarked) [Compound 9, 7′-ethoxy-feruloyltyramine], the “P. falciparum SI (selectivity index)” value in data set [1] worked out at 6.8. For the same compound, the IC50 in data set [1] (setting [8]) was found to be 30.4 ± 8 µM; in data set [2] (setting [9]) it was 72.7 ± 30.4 µM. The “T. b. rhodesiense SI (selectivity index)” value in data set [2] is given as 2.9. For the same compound, the IC50 at 72 h in data set [3] (setting [11]) worked out at 208 ± 21.6 µM.

For the compound `COc1cc(CC(C)C(CO)Cc2ccc(O)c(OC)c2)ccc1O` (centres unmarked) [Compound 10, 3,3′-dimethoxy-4,4′-dihydroxylignan-9-ol], in data set [1], the “P. falciparum SI (selectivity index)” value is given as 13.7. The “activity against P. falciparum (in words)” value in data set [1] (NF54) was “selectively active”. Further, the IC50 in data set [1] (setting [10]) is 9.3 ± 1.3 µM; in data set [1] (setting [8]), 9 to 9.5 µM; in data set [2] (setting [12]), 27.5 ± 8.4 µM; in data set [2] (setting [9]), 28 µM. The “T. b. rhodesiense SI (selectivity index)” value in data set [2] is 5 and 4.6. In data set [3] (setting [11]), the IC50 at 72 h is 128 ± 3.9 µM.

On to `COc1cc2c(OC)c3c(c(-c4ccc5c(c4)OCO5)c2cc1OC)C(=O)OC3` [Justicidin A], for which, in data set [6], the “activity against P. falciparum (in words)” value was “active”.

Take `COc1cc2cc3c(c(-c4ccc5c(c4)OCO5)c2cc1OC)C(=O)CO3` [Justicidin B]: in data set [7], the “trypanocidal activity (in words)” value is listed as “showed trypanocidal activity”.

Consider `CCN(CC)CCCC(C)Nc1ccnc2cc(Cl)ccc12` (centres unmarked) [chloroquine, reference compound], for which the IC50 in data set [1] (Plasmodium falciparum, NF54, read-out: P. falciparum IC50) was 0.01 µM.

`Nc1nc(N)nc(Nc2ccc([As]3SCC(CO)S3)cc2)n1` (centres unmarked) [melarsoprol, reference compound]: in data set [2] (Trypanosoma brucei), the IC50 worked out at 0.01 µM.

As for `COc1cc([C@@H]2c3cc4c(cc3[C@H](O)[C@H]3COC(=O)[C@H]23)OCO4)cc(OC)c1OC` [podophyllotoxin, reference compound], the IC50 at 72 h in data set [3] (rat skeletal myoblasts) worked out at 0.03 µM.
